Measured values published in US20140128357A1, “METHODS OF PRODUCING AND USING BRASSINOSTEROIDS TO PROMOTE GROWTH, REPAIR AND MAINTENANCE OF SKELETAL MUSCLE AND SKIN” (Rutgers University, priority 2010, published 2014).

Legend:
[1] = test system: 3T3 Swiss fibroblast monolayers; experiment: Scratch wound closure in vitro; format: cell-based, mouse; conditions: for Scratch wound closure at 5 μM, % of control: 12 h (Table 6); for Wound Closure (% over control): 10 μM, 12 h (Table 4)
Description: 3T3 fibroblasts were seeded into 24-well dishes at a concentration of 3×10^5 cells/ml and cultured to nearly confluent cell monolayers. On the day of the experiment, a linear wound was generated in the monolayer with a sterile 100 μl plastic pipette tip and any cellular debris was removed by washing cells once with sterile PBS. Fresh DMEM medium containing vehicle (0.1% ethanol), positive control (0.5% FBS), or various concentrations of the fractions, sub-fractions or pure compounds was added to a set of 3 wells per dose and incubated for 12 h at 37° C. with 5% CO2. Cells were then visualized with 20 μl of 10% methylene blue in PBS for 5 min. Three representative images of the scratched areas from each well were photographed at 0 and 12 h to estimate the scratch wound closure. Images were analyzed using ImageJ program (NIH, Bethesda, Md.) and % wound closure was calculated relative to vehicle control and was reported as wound closure % over control (Table 4). 3T3 Swiss fibroblast were seeded into 24-well tissue culture at a concentration of 3×10^5 cells/ml and cultured to nearly confluent cell monolayers. Then, a linear wound was generated in the monolayer with a sterile 100 μl plastic pipette tip. Any cellular debris was removed by washing with PBS. DMEM medium with vehicle (0.1% ethanol), FBS (1%, positive control), or various concentrations of brassinosteroids were added to a set of 3 wells per dose and incubated for 12 h at 37° C. with 5% CO2. Cells were visualized in 10% methylene blue for 5 minutes. Three representative images from each well of the scratched areas under each condition were photographed to estimate the relative migration of cells at 0 and 12 h post-treatment. Data were analyzed using ImageJ software available online from the National Institutes of Health (rsbweb.nih.gov/ij/) by calculating the percentage of scratch closure at each dose point relative to control.

L6 rat myotubes = experiment: Protein synthesis, [3H]-phenylalanine incorporation in myotubes; format: cell-based; conditions: for increase in protein synthesis above control levels: 4 h (FIG. 2A); for Protein synthesis (% increase over control): 4 h; for maximum increases in protein synthesis: dose response 0.3-30 μM (FIG. 8A)
Outline: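 Differentiated L6 rat myotubes (2% serum, 7–9 days) treated in triplicate in serum-free DMEM with compound (10 μM) or 0.1% ethanol vehicle plus 0.5 μCi/mL [3H]-phenylalanine for 4 h. TCA-precipitated protein counted by scintillation, normalised to total protein; IGF-1 6.5 nM positive control.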

CC[C@@H](C(C)C)[C@H](O)[C@@H](O)[C@@H](C)[C@H]1CC[C@H]2[C@@H]3COC(=O)[C@H]4C[C@H](O)[C@H](O)C[C@]4(C)[C@H]3CC[C@]12C [Compound 1, (22S,23S,24S)-2α,3α,22,23-tetrahydroxy-24 ethyl-β-homo-7-oxo-5α-cholestane-6-one]
Scratch wound closure at 5 μM, % of control [1]: 30 ± 4.2 % | Scratch wound closure at 5 μM, % of control ([1]; listed as HB): 30±4.2% | Wound Closure (% over control) [1]: 30.2 ± 11.2 % | increase in protein synthesis above control levels (L6 rat myotubes; 1 μM): 12.4±2.3% | time at which stimulated protein synthesis peaked (L6 rat myotubes; 3 μM, 1-24 h study): 3 h | Protein synthesis (% increase over control) (L6 rat myotubes; 10 μM): 37.2 ± 5.9 % | increase in protein synthesis above control levels (L6 rat myotubes; 10 μM): 34.9±3.1% | Protein synthesis (% increase over control) (L6 rat myotubes; 10 μM, listed as HB): 37.2±5.9% | increase in protein synthesis above control levels (L6 rat myotubes; 20 μM): 36.9±2.9% | maximum increases in protein synthesis (L6 rat myotubes): 36.9±2.9% | EC50 (L6 rat myotubes; read-out: 50% effective dose for protein synthesis): 3 µM

CC[C@@H](C(C)C)[C@H](O)[C@@H](O)[C@@H](C)[C@H]1CC[C@H]2[C@@H]3CC(=O)[C@H]4C[C@H](O)[C@H](O)C[C@]4(C)[C@H]3CC[C@]12C [Compound 2, (22S,23S,24S)-2α,3α, 22,23-tetrahydroxy-24-ethyl-5α-cholestan-6-one]
Scratch wound closure at 5 μM, % of control [1]: 32.9 ± 4.1 % | Wound Closure (% over control) [1]: 32.9 ± 14.1 % | Protein synthesis (% increase over control) (L6 rat myotubes; 10 μM): 41.0 ± 2.7 % | Protein synthesis (% increase over control) (L6 rat myotubes; 10 μM, listed as (22S,23S)-homocastasterone): 41.0±2.7% | maximum increases in protein synthesis (L6 rat myotubes): 40.7±4.9%

CC[C@@H](C(C)C)[C@H](O)[C@@H](O)[C@@H](C)[C@H]1CC[C@H]2[C@@H]3CC(=O)N[C@H]4C[C@H](O)[C@H](O)C[C@]4(C)[C@H]3CC[C@]12C [Compound 5, (22S,23S,24S)-2α,3α-22,23-tetrahydroxy-24-ethyl-B-homo-6-aza-5α-cholestan-7-one]
Scratch wound closure at 5 μM, % of control [1]: 13.0 ± 0.7% | fibroblast migration activity in words ([1]; 0.1-10 μM, 12 h): no effect on fibroblast migration | effect of structural modification on activation of protein synthesis, in words (L6 rat myotubes; 10 μM): complete loss of activation of protein synthesis | Protein synthesis (% increase over control) (L6 rat myotubes; 10 μM): 3.3 ± 12.4%
